According to patent publication US20050019746A1, “Apoptosis-related kinase/GPCRs” (EiRx Therapeutics Limited, priority 2003, published 2005):

Key:
[1] = tested on: human primary neutrophils; assay: Neutrophil apoptosis by sub G1 analysis (DNA fragmentation); format: cell-based; settings: inhibitor 20 μM with GM-CSF 50 units/ml, 18 h, relative to GM-CSF alone
Protocol: Neutrophils are isolated from the blood as described in WO 02/04657 and resuspended at a concentration of 2×10^6/ml. Five hundred microlitres are pipetted into wells of a 24 well plate and incubated in the presence or absence of survival factors.
After this incubation, the neutrophils are carefully resuspended by gentle agitation and the total contents of the well are placed into an eppendorf and centrifuged@2800 rpm for 2 min@RT in a minifuge. The cell pellet is carefully resuspended in 300 μl of ice cold hypotonic fluorochrome solution (50 μg/ml Propidium Iodide, 0.1% Sodium Citrate and 0.1% Triton X-100) and placed in a fridge for 24 h@4° C.
Prepared samples are analysed with a FacsCalibre flow cytometer (Becton Dickinson) using double discrimination to ensure single cell suspension with Log Forward and Side Scatter Parameter acquisition.
(§1) Neutrophils are seeded at 2×10^6/ml in a 24 well plate in full culture medium (1 ml/well). A PI3K inhibitor (Ly294002) is added to the neutrophils to a final concentration of 20 μM prior to the addition of GM-CSF (50 units/ml). Control wells received either no GM-CSF or F GM-CSF (50 units/ml) in the absence of inhibitor. Neutrophils are cultured for 18 h at 37° C. prior to harvest and prepared for sub G1 analysis, as previously described.
as §1, with “An AKT” for “A PI3K”, “([1L-6-Hydroxymethyl-chiro-inositol 2-O-methyl-3-O-octadecylcarbonate] (Calbiochem))” for “(Ly294002)”, “μM and incubated for 2 h” for “μM”, “receive” for “received”, “or” for “or F”

[2] = tested on: PDK1 regulatory sites in S6K1 and Akt; settings: Ballif et al; cited from earlier work
[3] = tested on: JAK3-positive leukemia cell lines DAUDI, RAMOS, LC1;19, NALM-6, MOLT-3, HL-60; settings: concentration-dependent, not JAK3-negative lines (Sudbeck et al); cited from earlier work
glioblastoma cell = settings: Narla et al; cited from earlier work
MCF7 cells = assay: Anchorage Independence/Soft Agar Assay, MCF7; format: cell-based, human; parameters: PERCENTAGE SURVIVAL RELATIVE TO MS, MCF7, n = 2: tested at 2 µg; settings: soft agar
Protocol: (§2) The Anchorage Independence/Soft Agar Assay allows assessment of the influence of modulation of gene expression on clonal tumouroid formation by observing and quantifying tumouroid morphology and colony number over an extended period of logarithmic growth thereby ascertaining any cell death is induced.
(§3) Cells are seeded into a 6-well plate and allowed to adhere overnight at 37° C. in a humidified atmosphere containing 5% CO2 in air. Cells are next transfected with siRNA Oligomers, at a concentration of 2 μg, against the genes of interest. Transfections continued for 4 hrs after which the transfection solution is removed and cells are refed with fresh medium and allowed incubate overnight. Transfected cells are next harvested for seeding into soft agar assay as described below. Cells are seeded at 5×10^4 cells per well of a 6 well plate and incubated over a 12/14-Day period whilst proliferating in a 0.05% Agar/Medium cell suspension at 37° C. in a humidified atmosphere containing 5% CO2 in air. Colonies formed are subsequently stained with Crystal Violet, their morphology is assessed and colonies formed are enumerated at a 4× magnification.
(§4) The cytotoxic effect of each gene is determined by a reduction in colony number compared to our MS control, but any influence on the morphology of the colony is also noted.
(§5) Examples of genes with a cytotoxic effect on knockdown as detected by the soft agar assay are outlined in Table 14. Table 14 gives the percentage survival of the indicated cell lines post transfection with siRNA oligomers to target genes relative to that of the missense in an anchorage independent assay. As an internal reference, the known survival gene Survivin was also targeted by siRNA. This table illustrates the magnitude of cytotoxicity induced by the knockdown of each target gene compared to the MS control i.e. the number of colonies formed are stained with Crystal violet and enumerated visually as discussed.

DU145 cells = assay: 10-14 day Clonagenicity Assay (MTT), DU145; format: cell-based, human; settings: independent experiment n = 2, dilution point of maximum toxicity
Source text: (§6) The Clonagenicity Assay represents a Cell Viability Screen that allows assessment of a cytotoxic insult at a variety of seed densities of cancer cell lines over an extended period of logarithmic growth, such that the definitive effect of the test substance can be accurately quantified. In this instance, the ‘cytotoxic insult’ to be tested involves the transfection of siRNA Oligomers to knockdown the expression of novel target Kinases and GPCRs as outlined previously. Cell number is quantified 10-14 days post siRNA transfection by MTT conversion as described in detail in Example 6.
(§7) The Clonagenicity Assay is optimised for each cell line examined with respect to seed number. The seed number varies for each cell line and accounts for the differences in cell size, growth rate and sensitivity to transfection-induced toxicity for each cell line pursued. Cells lines given as models for this example include HCT15, MCF7, A549, SKOV3, DU145, U251, PC3, A498 and HeLa. The siRNA oligo to Survivin serves as a positive control for toxicity in this assay and the missense control oligomer acts as a negative control as described in detail in Examples 5 and 6. The c-Raf, BCL2 and PI3K siRNA oligomers serve as additional controls as previously mentioned. The Clonagenicity assay is performed as outlined below.
(§8) Cells are seeded into a 96-well plate as described below and allowed to adhere overnight at 37° C. in a humidified atmosphere containing 5% CO2 in air. Wells are seeded with an appropriate cell number (cell line dependent) in Column 1 of the 96 well plates and this cell suspension is diluted 1 in 2 across the 96 well plates from Column 1 through to 6 (represented on the x-axis in results). Cells are next transfected with siRNA Oligomers, at a concentration of 2 μg/ml, against the genes of interest. Transfections continue for 4 hrs after which the transfection solution is removed and cells are refed with fresh medium and allow to incubate overnight. An additional media change@24 hrs post transfection is made to minimise toxicity of the transfection reagent. Cells are subsequently incubated for a 10-14 Day period post transfection at a 37° C. incubation as described above. Medium is renewed weekly following which MTT quantification is performed as described in Example 5.
(§9) To be considered cytotoxic, the siRNA Oligo against the gene target must induce a decreased viability in a cell line across at least 2 seed densities in the clonagenicity assay, such that a significant difference between the target gene and MS is observed i.e. no crossing of the Standard Error bars is detected. The average percentage viability, relative to missense, is recorded for the dilution point at which Maximum Toxicity is induced is recorded in Table 13.
(§10) Table 13 Clonagenicity Assay—This table gives the average percentage survival of the indicated cell lines relative to the missense in a clonagenicity assay, over 3 independent experiments. As an internal reference, the known survival gene ‘Survivin’, BCL2, c-Raf and PI3KR1 was also targeted by siRNA. When no Cytotoxic response is detected ‘-’ is recorded.

A549 cells [4] = assay: 10-14 day Clonagenicity Assay (MTT), A549; format: cell-based, human; settings: independent experiment n = 3, dilution point of maximum toxicity
Source text: as §6, §7, §8, §9, §10

A498 cells = assay: 10-14 day Clonagenicity Assay (MTT), A498; format: cell-based, human; settings: independent experiment n = 3, dilution point of maximum toxicity
Source text: as §6, §7, §8, §9, §10

cancer cell lines = assay: Anchorage Independence/Soft Agar Assay, summary over the cell lines; format: cell-based, human; settings: 14-day anchorage independent assay, over the cell lines examined
Protocol: as §2, §3, §4
As an internal reference, the known survival gene ‘Survivin’ was also targeted by siRNA.

SKOV3 cells = assay: 10-14 day Clonagenicity Assay (MTT), SKOV3; format: cell-based, human; settings: independent experiment n = 1, dilution point of maximum toxicity
Source text: as §6, §7, §8, §9, §10

A549 cells [5] = assay: Anchorage Independence/Soft Agar Assay, A549; format: cell-based, human; parameters: PERCENTAGE SURVIVAL RELATIVE TO MS, A549, n = 2: tested at 2 µg; settings: soft agar
Protocol: as §2, §3, §4, §5

HCT15 cells [6] = assay: 10-14 day Clonagenicity Assay (MTT), HCT15; format: cell-based, human; settings: independent experiment n = 1, dilution point of maximum toxicity
Source text: as §6, §7, §8, §9, §10

HCT15 cells [7] = assay: Anchorage Independence/Soft Agar Assay, HCT15; format: cell-based, human; parameters: PERCENTAGE SURVIVAL RELATIVE TO MS, HCT15, n = 2: tested at 2 µg; PERCENTAGE SURVIVAL RELATIVE TO MS, HCT15, n = 1: tested at 2 µg siRNA; settings: soft agar
Protocol: as §2, §3, §4, §5

CCCCCCCCCCCCCCCCCCOC(=O)OC1C(O)C(O)C(CO)C(O)C1OC (centres unmarked) [1L-6-Hydroxymethyl-chiro-inositol 2-O-methyl-3-O-octadecylcarbonate]
apoptosis / GM-CSF mediated survival by sub G1 analysis [1]: survival is abrogated
apoptosis / GM-CSF mediated survival by sub G1 analysis ([1]; listed as IL-6-Hydroxymethyl-chiro-inositol 2-(R)-2-O-methyl-3-O-octadecylcarbonate): increases the amount of apoptosis

Cc1ccc(S(=O)(=O)N[C@@H](Cc2ccccc2)C(=O)CCl)cc1 [TPCK, n-alpha-tosyl-1-phenylalanyl chloromethyl ketone]
phosphorylation of PDK1 regulatory sites [2]: prevented phosphorylation of the PDK1 regulatory sites in S6K1 and Akt

COc1cc2ncnc(Nc3ccc(O)cc3)c2cc1OC [WHI-P131]
clonogenic growth [3]: inhibited the clonogenic growth
glioblastoma cell adhesion and migration (glioblastoma cell): potent inhibitors of glioblastoma cell adhesion and migration

siRNA c-Raf: control siRNA, sense UAGUUCAGCAGUUUGGCUAtt, antisense UAGCCAAACUGCUGAACUAtt (sense UAGUUCAGCAGUUUGGCUATT; antisense UAGCCAAACUGCUGAACUATT; chemistry not given here) [reference compound]
PERCENTAGE SURVIVAL RELATIVE TO MS, MCF7, n = 1 (MCF7 cells; experiment n = 1): 89.7%
PERCENTAGE SURVIVAL RELATIVE TO MS, MCF7, n = 2 (MCF7 cells; experiment n = 2): 98.2%
percentage survival relative to the missense, n = 2 (DU145 cells): 54.9%
percentage survival relative to the missense, n = 3 (A549 cells [4]): 59.1%
percentage survival relative to the missense, n = 3 (A498 cells): 14.8%
cell death / apoptosis in the soft agar assay (cancer cell lines): only induced cell death in the A549 and HCT15 cell lines
percentage survival relative to the missense, n = 1 (SKOV3 cells): 42.5%
PERCENTAGE SURVIVAL RELATIVE TO MS, A549, n = 1 (A549 cells [5]; experiment n = 1): 57%
PERCENTAGE SURVIVAL RELATIVE TO MS, A549, n = 2 (A549 cells [5]; experiment n = 2): 24.2%
percentage survival relative to the missense, n = 1 (HCT15 cells [6]): 83.5%
PERCENTAGE SURVIVAL RELATIVE TO MS, HCT15, n = 1 (HCT15 cells [7]; experiment n = 1): 70%
PERCENTAGE SURVIVAL RELATIVE TO MS, HCT15, n = 2 (HCT15 cells [7]; experiment n = 2): 65.1%
